Source: US20060045881A1, “Anti-cancer vaccines” (Board of Regents, The University of Texas System, priority 2004, published 2006)
Values joined by “and” are separate entries in the source; they are usually repeats but may differ in a detail not shown here. Equal values may be shown once.

What was measured:
PR1-CTL = test: Annexin V apoptosis of PR1-CTL challenged with peptide-pulsed T2 cells; type: cell-based, human; settings: for apoptosis (Annexin V) of high avidity PR1-CTL: T2 pulsed with 20 μM peptide, 16 to 18 hr
Text: High PR1 concentration and proteinase 3-overexpressing CML cells induce apoptosis of high avidity PR1-specific CTL. […] All high avidity PR1-CTL exposed to high dose PR1 were dead after 36 to 48 hr of co-culture.

T2 cells = test: 4-hr cytotoxicity of peptide-elicited CTL lines against peptide-loaded T2 cells
Protocol: CTL cytotoxicity assay. A semiautomated minicytotoxicity assay was used to determine specific lysis as described previously (Molldrem, 2000; Molldrem et al., 1996). Briefly, effector cells were prepared in doubling dilutions from 6×10^3 to 25×10^3 cells/well and were plated in 40 μl, 60-well Terasaki trays (Robbins Scientific, Sunnyvale, Calif., USA) with six replicates per dilution. Target cells (T2 cells, marrow-derived leukemic cells, or BM from a healthy donor) at a concentration of 2×10^6 cells/ml were stained with 10 μg/ml of Calcein-AM (Molecular Probes Inc.) for 60 min at 37° C. After washing three times in CM plus 10% AB, target cells were resuspended at 10^5 cells/ml, and 10^3 target cells in 10 μl medium were added to each well containing effector cells. Wells with target cells alone and medium alone were used for maximum (max) and minimum (min.) fluorescence emission, respectively. After 4 hr incubation at 37° C. in 5% CO2, 5 μl FluoroQuench (One Lambda Inc., Canoga Park, Calif., USA) was added to each well, and the trays were centrifuged for 1 min at 60 g before measurement of fluorescence using an automated CytoFluor II plate reader (PerSeptive Biosystems, Framingham, Mass., USA). The percentage of lysis was calculated as follows: % lysis={1−[(mean experimental mission−mean min.)/(mean max−mean min.)]}×100%.
Induction of Primary CTL responses to peptides. These peptides were next used to stimulate T cells specific for peptide-coated targets. PBMC from a normal healthy donor heterozygous for HL-A2.1 were stimulated with peptide-pulsed T2 cells. […] Briefly, T2 cells (which co-express the costimulatory molecule B7.1) were washed 3 times in serum-free RPMI culture media supplemented with penicillin/streptomycin and glutamine (CM) and incubated with peptide at 20 μg/mL for 2 hr in CM. The peptide loaded T2 cells were then irradiated with 7500 cGy, washed once, and suspended with freshly isolated PBMC at a 1:1 ratio in CM supplemented with 10% human serum (HS) (Sigma, St. Louis, Mo.). […]

[1] = test system: marrow cells from a normal healthy donor; test: Cytotoxicity of peptide-elicited CTL against normal donor marrow cells; type: cell-based, human
Text: (§1) PR1 specific CTL preferentially lyse human myeloid leukemia cells. It was next determined whether the PR1-specific CTL line was capable of lysing allogeneic human myeloid leukemia cells from HLA-A2.1 positive individuals. As controls, two cell lines expressing low levels of Pr3 were used: HLA-A2.1 transfected K562 cells and U937 cell line which lack HLA-A2.1 and would therefore be incapable of presenting peptides in an HLA-A2.1-restricted manner. Cryopreserved bone marrow cells from patients P1-P4, and marrow cells from a healthy normal volunteer (D2, a bone marrow donor for an allogeneic bone marrow transplant performed on patient P3) were thawed and used as targets for the PR1-specific CTL line.
(§2) It was next determined whether the MY2 and MY4-specific CTL lines were capable of lysing allogeneic human myeloid leukemia cells from HLA-A2.1 positive individuals. The targets were BM cells from pre-transplant HLA-A2.1-positive AML patients. As controls, BM cells from HLA-A2.1-negative AML patients, BM from HLA-A2.1-positive healthy donors and two cell lines expressing low levels of MPO were used: HLA-A2.1 transfected K562 cells and the U937 cell line which lacks HLA-A2.1 and would therefore be incapable of presenting peptides in an HLA-A2.1-restricted manner.

[2] = test system: human myeloid leukemia cells; test: Cytotoxicity of peptide-elicited CTL against HLA-A2.1-positive myeloid leukemia marrow cells; type: cell-based; settings: for lysis of HLA-A2.1-positive AML marrow cells by peptide-specific CTL: MY2: E:T 5:1
Text: as §1, §2

HLA-A2.1 = HLA-A2.1 (Homo sapiens, UniProt P04439, D140Y/D185E/D98H/E176V/E277Q/G131W/G231S/I119V/I121R/I166T/I218V/L300P/L318F/N151K/N90K/P208A/P217A/Q86G/Q94H/R138H/R169H/T345S); test: HLA-A2.1 surface expression on peptide-coated T2 cells (indirect flow cytometry, BB7.2); type: binding; settings: compared with T2 without peptide / control influenza peptide
Protocol: Cell lines and peptide binding. T2 cells (American Type Culture Collection, Rockville, Md., USA) were maintained in culture in CM plus 10% FBS (Atlanta Biologicals Inc., Norcross, Ga., USA). PR1 peptide was incubated at increasing concentrations for 18 hr at 37° C. with 100 μg/ml β2m (Sigma-Aldrich) with 10^6 T2 cells in 1 ml CM. Cells were washed twice with CM, stained with BB7.2 Ab, washed again, and then stained with FITC-labeled secondary Ab (Becton Dickinson Immunocytometry Systems, San Jose, Calif., USA).
T2 cells are a human lymphocyte line that lacks TAP1 and TAP2 genes and therefore cannot present endogenous MHC class I restricted antigens. If the peptide effectively bound HLA-A2.1, it stabilized the complex with (β2-microglobulin and increased HLA-A2.1 surface expression, which could be measured using flow cytometry. An HLA-A2.1 specific monoclonal antibody (BB7.2, ATCC, Rockville, Md.) followed by a FITC-labeled secondary antibody (CalTag Laboratories, Burlingame, Calif.) was used to measure surface expression of HLA-A2.1.
T2 cells are a human lymphocyte line that lacks TAP1 and 2 genes and cannot therefore present endogenous MHC class I restricted antigens. If the peptide effectively bound HLA-A2.1, it stabilized the complex with β2-microglobulin and increased HLA-A2.1 surface expression, which could be measured using flow cytometry. An HLA-A2.1 specific monoclonal antibody (BB7.2, ATCC, Rockville, Md.) followed by a FITC-labeled secondary antibody (CALTAG) was used to measure surface expression of HLA-A2.1. […] The labeled heterotrimer complex was separated from unincorporated β2-microglobulin by high-performance liquid

[3] = test system: CFU-GM from normal marrow; test: CFU-GM colony inhibition by MY4-pulsed CTL, normal marrow; type: cell-based, human; settings: D1 and D2, HLA identical marrow donors
Text: (§3) In contrast there was no inhibition of CFUGM from normal marrow, D1 and D2, the corresponding HLA identical marrow donors for P1 and P2.

AML CFU-GM = test: CFU-GM colony inhibition by MY4-pulsed CTL, AML marrow; type: cell-based, human; settings: patient P1 (M2-AML) and P2 (M4-AML), respectively; 13 day MY4-pulsed CTL
Text: as §3

[4] = test system: HLA-A2+ patients with CML, AML or MDS; test: Phase I/II PR1 peptide vaccine study in myeloid leukemia patients; type: in vivo, human
Protocol: PR1 peptide is injected subcutaneously in incomplete Freund's adjuvant every 3 weeks for 3 injections to induce a PR1 specific host response against the myeloid leukemia. Both in Phase I and in Phase II, patients will also be evaluated for signs of immune reactivity. […] The amount of Proteinase 3 expression in the leukemia cells is studied by cytoplasmic flow cytometry analysis. Any clinical responses (defined by standard criteria as hematological and/or cytogenetic responses) will be correlated with the in vitro testing. Vaccination at 3 dose levels of peptide with a fixed amount of IFA will be conducted, and stopping criteria will be guided by established toxicity criteria.
HLA-A2^+ patients with CML (interferon-resistant or relapsed after BMT), AML (smoldering relapse or ≧2nd CR) or MDS (RAEB or RAEBt) with no detectable antibodies to proteinase 3 (no detectable cANCA) were eligible. Patients that relapsed after BMT or those ineligible for BMT were also eligible for study. […]
Secondarily, clinical responses were assessed by standard criteria with bone marrow biopsy, cytogenetic studies (standard chromosome banding) and molecular studies (PCR for bcr-abl or other known abnormalities such as t(15;17), inv16, etc.) 3 weeks after the last vaccination. Patients were seen and evaluated in clinic every 3 weeks during the study period. […]

[5] = test system: PBMC from HLA-A2.1+ healthy donors; test: In vitro elicitation of PR1-CTL from PBMC with peptide-pulsed APC, PR1/HLA-A2 tetramer staining; type: cell-based, human
Protocol: Peptide-specific CTLs were expanded in culture using methods described previously (Molldrem et al., 1996; Molldrem et al., 1997). Briefly, PBMCs from healthy donors or CML patients were stimulated in vitro with PR1, pp65, or flu peptides. T2 cells were washed three times in serum-free CM and incubated with peptide at the indicated peptide concentration for 2 hr in CM.
Ab's and flow cytometry. For routine surface-antigen staining, 10^6 PBMCs were incubated at 4° C. with Ab. After washing, cells were incubated with FITC-labeled CD8 (Caltag Laboratories Inc., Burlingame, Calif., USA) for 30 min on ice. Surface expression of TCR was determined with FITC-labeled TCR-αβ (PharMingen, San Diego, Calif., USA), and annexin V using FITC-labeled Ab (Caltag Laboratories). Proteinase 3 expression was determined with primary mouse Ab (Accurate Chemical & Scientific Corp., Westbury, N.Y., USA). Mouse monoclonal anti-HLA-A2.1 Ab BB7.2 and anti-HLA-ABC w6/32 were derived from culture supernatants of a hybridoma cell lines (American Tissue Culture Collection). Cells were washed and fixed in 2% paraformaldehyde and analyzed on a FACScan (Becton Dickinson Immunocytometry Systems), and data were analyzed using CELLQuest (Becton Dickinson Immunocytometry Systems) software. The minimum concentration of tetramer necessary to show distinctly different avidities was determined in titration experiments. Each tetramer reagent was titered individually and used at the optimal concentration. The tetramer concentration showing the maximal separation of fluorescence intensity of CTL populations was generally 10-20 μg/ml. Propidium iodide (PI) (Becton Dickinson Immunocytometry Systems) staining (1 μg/ml) was performed to exclude dead cells, according to the manufacturer's instructions. A “dump” channel was used with tetramer staining to eliminate monocytes and B lymphocytes with nonspecific binding to the HLA-A2 heavy chain by staining with PerCP-labeled CD14 and CD19 (both Becton Dickinson Immunocytometry Systems).
PR1-specific CTL with high and low TCR avidity can be elicited from healthy donors. To determine whether high and low avidity PR1-CTL are present in healthy donors, a modified tetramer staining technique (Savage et al., 1999) using limiting tetramer concentration to visualize high and low fluorescence intensity tetramer+ cells, which correlates with high and low TCR avidity was utilized. Sufficient PR1-CTL was elicited by stimulating PBMC with increasing peptide concentrations for 28 days. PBMC from an HLA-A2.1+ healthy donor stimulated weekly for 28 days with 0.2 μM PR1 elicited 1.3% high intensity PR1/HLA-A2 tetramer-staining CTL with a median channel of fluorescence (MCF) of 293 (high avidity PR1-CTL), while stimulation with 20 μM PR1 produced 3.1% low avidity (MCF=93) PR1-specific CTL (FIG. 11A). […] Cultures stimulated with 2 μM PR1 produced fewer PR1-specific CTL with mixed TCR avidities, while stimulation with ≦0.02 μM PR1 induced <0.1% PR1-CTL. […] To further verify that tetramer staining intensity correlates with TCR avidity, the kinetics of tetramer staining decay was determined using previously described techniques (Savage et al., 1999).

[6] = test system: HMy2.CIR-A2 cells transfected with Pr3; test: PR1-specific CTL lysis of Pr3-transfected HMy2.CIR-A2 cells; type: cell-based, human; settings: clone 1.4; E:T 25:1
Protocol: Expression of proteinase 3 following transfection into and HMy2.CIR and HMy2.CIR-A2 cells. […] The parental HMy2.CIR cell line, which has lost expression of HLA-A and -B, and the HLA-A2.1-transfected HMy2.CIR cells (named HMy2.CIR-A2), were both transfected with Pr3 as described below.
Ten million HMy2.CIR (ATCC, Rockville, Md.), or 10 million HMy2.CIR-A2 cells were each washed in phosphate buffered saline (PBS) and re-suspended in 0.8 mL of ice-cold PBS and put into an electroporation cuvette with 20 μg of circular plasmid DNA. The mixture was exposed to an electric pulse of 320 volts at 960 microF and incubated on ice for 10 min. Cells were then added to 10 mL of pre-warmed CM. The following day, the CM was replaced. On day 2, cells were grown under selection conditions using 200 μg/mL Zeocin. Following one week of selection, the cells were subcloned by limiting dilution under Zeocin selection, and 6 clones were isolated.
HMy.2.CIR-A2 cells transfected with Pr3 are susceptible to lysis by PR1 specific CTL. It was next determined whether the transfected HMy2.CIR-A2 cells could be lysed by PR1 specific CTL. The PR1 specific CTL were elicited in the manner previously described, and after 22 days in culture were combined at a 25:1 E:T ratio with HMy2.CIR-A2 transfected either with the Pr3-containing vector pRTZ.2, or the empty vector containing the reporter gene, CAT. […]

[7] = T2 loaded with 1.0 μg/mL of same peptide, varying E:T

## Influenza nucleoprotein: control influenza peptide, Influenza B nucleoprotein (aa 85-94), known high binding affinity to HLA-A2.1 (KLGEFYNQMM) [reference compound]
PR1-CTL
  apoptosis (Annexin V) of high avidity PR1-CTL: no apoptosis was observed

## KLLLALAGL [MY2]
T2 cells; T2 loaded with 2.0 μg/mL of same peptide
  specific lysis of peptide-loaded T2 cells by CTL line generated against the peptide: high specific lysis
[1]; E:T 20:1
  lysis of HLA-A2.1-positive normal healthy donor marrow cells by MY2-specific CTL: 43%
[2]
  lysis of HLA-A2.1-positive AML marrow cells by peptide-specific CTL: readily lysed

## KLNDILLIQL [PR7I]
HLA-A2.1
  surface HLA-A2.1 expression on peptide-pulsed T2 cells (in words): strong peptide binding

## KLNDVLLIQL [PR7V]
HLA-A2.1
  surface HLA-A2.1 expression on peptide-pulsed T2 cells (in words): strong peptide binding

## RLFEQVMRI [MY4]
[3]
  inhibition of CFU-GM from normal marrow: no inhibition
[1]
  specific lysis of HLA-A2+ normal BMC by peptide-specific CTL: not normal cells
AML CFU-GM
  inhibition of CFU-GM: 63% and 34%
[2]
  lysis of HLA-A2.1-positive AML marrow cells by peptide-specific CTL: killed AML cells

## RLFPDFFTRV [PR2]
T2 cells; [7]
  specific lysis of peptide-loaded T2 cells by CTL line generated against the peptide: did not demonstrate any significant cytotoxicity
HLA-A2.1
  surface HLA-A2.1 expression on peptide-pulsed T2 cells (in words): increased surface HLA-A2.1 expression

## VLQELNVTV [PR1]
PR1-CTL
  apoptosis (Annexin V) of high avidity PR1-CTL: underwent apoptosis
PR1-CTL; high or low concentrations of PR1
  apoptosis (Annexin V) of low avidity PR1-CTL: did not undergo apoptosis
T2 cells; [7]
  specific lysis of peptide-loaded T2 cells by CTL line generated against the peptide: high specific lysis
[4]; 9 patients (1 AML and 1 CML)
  patients with complete remission: 2 patients
[4]; 9 patients, 0.25, 0.5 or 1.0 mg every 3 weeks x3
  patients in whom PR1-specific CTL immunity was elicited (tetramer staining): 6 of 9
[5]; 32 day-old PR1-stimulated CTL culture
  % of bulk culture CTL double-positive (CD8, PR1-tetramer): 4.3%
[5]; PBMC stimulated weekly 28 days with 0.2 μM PR1 (high avidity)
  % PR1/HLA-A2 tetramer-staining CTL: 1.3%
[5]; day 17 CTL line elicited against PR1
  % of CTL line specific for PR1 (PR1-tetramer/CD8): 2.4%
[5]; stimulated with 20 μM PR1 (low avidity)
  % PR1/HLA-A2 tetramer-staining CTL: 3.1%
[5]; stimulation with ≦0.02 μM PR1
  % PR1-CTL induced: < 0.1%
[1]; donor D2
  lysis of normal donor marrow cells by PR1-specific CTL: < 20%
[2]; CML-BC, E:T 25:1
  specific lysis of CML blast crisis marrow cells by PR1-specific CTL: 73%
[2]; CTL from patients CML #1 and CML #2, respectively, E:T 20:1
  lysis of CML #3 BM cells by patient CTL elicited with 0.2 μM PR1: 24%±5% and 33%±6%
[2]; P1, CML in chronic phase, E:T 6:1
  specific lysis of CML marrow cells by PR1-specific CTL: 53%
[6]
  specific lysis of Pr3-transfected cells by PR1-specific CTL: 36%
HLA-A2.1
  surface HLA-A2.1 expression on peptide-pulsed T2 cells (in words): increased surface HLA-A2.1 expression
